Results from ChEMBL document CHEMBL4311972, “Discovery of a benzothiophene-flavonol halting miltefosine and antimonial drug resistance in Leishmania parasites through the application of medicinal chemistry, screening and genomics” (Eur J Med Chem, 2019).

Tested on: Trypanosoma brucei
Assay: Antitrypanosomal activity against Trypanosoma brucei bloodstream form assessed as parasite growth inhibition incubated for 72 hrs by resazurin dye based assay
Assay type: functional, organism-based
Conditions: not given; call rule not given here

| Structure (SMILES) | EC50 |
| --- | --- |
| CCOc1ccc2c(=O)c(O)c(-c3csc4ccccc34)oc2c1 | Not Active |
| COc1ccc2oc(-c3csc4ccccc34)c(OC(=O)N(C)C)c(=O)c2c1 | Not Active |

Same assay, conditions: Trypanosoma brucei, 72 h; read-out: EC50

| Structure (SMILES) | EC50 [µM] |
| --- | --- |
| COc1cccc2oc(-c3cc(C)cs3)c(O)c(=O)c12 | 3.4 |
| COc1ccc2c(=O)c(O)c(-c3sccc3C)oc2c1 | 4.9 |
| COc1ccc2oc(-c3c[nH]c4ccccc34)c(O)c(=O)c2c1 | 1.4 |
| Cc1csc(-c2oc3ccc(O)cc3c(=O)c2O)c1 | 4.9 |
| O=c1c(O)c(-c2c[nH]c3ccccc23)oc2ccc(O)cc12 | 3.1 |

Target: CYP2C19 (Homo sapiens, UniProt P33261)
Sequence (P33261 whole entry): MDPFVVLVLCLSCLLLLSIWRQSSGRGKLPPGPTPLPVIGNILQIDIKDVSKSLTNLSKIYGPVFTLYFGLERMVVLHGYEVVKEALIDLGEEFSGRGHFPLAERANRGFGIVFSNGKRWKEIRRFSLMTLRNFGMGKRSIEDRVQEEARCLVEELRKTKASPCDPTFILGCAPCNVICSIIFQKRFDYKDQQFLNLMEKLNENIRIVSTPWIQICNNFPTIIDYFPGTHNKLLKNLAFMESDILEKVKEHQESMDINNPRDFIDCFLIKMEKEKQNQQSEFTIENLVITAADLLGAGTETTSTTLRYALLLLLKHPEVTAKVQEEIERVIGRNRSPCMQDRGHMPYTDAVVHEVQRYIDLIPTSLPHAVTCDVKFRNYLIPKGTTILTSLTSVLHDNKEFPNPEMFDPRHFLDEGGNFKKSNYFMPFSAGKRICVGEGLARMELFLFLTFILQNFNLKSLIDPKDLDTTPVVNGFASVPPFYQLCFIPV
Assay: Inhibition of human microsomal CYP2C19 expressed in baculovirus infected insect cells at 10 uM using luciferin-H EGE as substrate preincubated with enzyme/substrate mixture for 30 mins followed by further incubation with NADPH for 30 mins by CYP450 luciferase Glo assay relative to control
Assay type: ADME
Conditions: probe luciferin-H EGE

| Structure (SMILES) | inhibition at 0.5 h, 10 µM [%] |
| --- | --- |
| COc1cccc2oc(-c3cc(C)cs3)c(O)c(=O)c12 | 19.2 |
| COc1ccc2c(=O)c(O)c(-c3sccc3C)oc2c1 | 35.2 |
| COc1ccc2oc(-c3c[nH]c4ccccc34)c(O)c(=O)c2c1 | 32.6 |
| CCOc1ccc2c(=O)c(O)c(-c3csc4ccccc34)oc2c1 | 46.1 |
| Cc1csc(-c2oc3ccc(O)cc3c(=O)c2O)c1 | 35.2 |
| O=c1c(O)c(-c2c[nH]c3ccccc23)oc2ccc(O)cc12 | 47.9 |
| COc1ccc2oc(-c3csc4ccccc34)c(OC(=O)N(C)C)c(=O)c2c1 | 26.3 |

Target: hERG (KCNH2) (Homo sapiens, UniProt Q12809)
Sequence (Q12809 whole entry): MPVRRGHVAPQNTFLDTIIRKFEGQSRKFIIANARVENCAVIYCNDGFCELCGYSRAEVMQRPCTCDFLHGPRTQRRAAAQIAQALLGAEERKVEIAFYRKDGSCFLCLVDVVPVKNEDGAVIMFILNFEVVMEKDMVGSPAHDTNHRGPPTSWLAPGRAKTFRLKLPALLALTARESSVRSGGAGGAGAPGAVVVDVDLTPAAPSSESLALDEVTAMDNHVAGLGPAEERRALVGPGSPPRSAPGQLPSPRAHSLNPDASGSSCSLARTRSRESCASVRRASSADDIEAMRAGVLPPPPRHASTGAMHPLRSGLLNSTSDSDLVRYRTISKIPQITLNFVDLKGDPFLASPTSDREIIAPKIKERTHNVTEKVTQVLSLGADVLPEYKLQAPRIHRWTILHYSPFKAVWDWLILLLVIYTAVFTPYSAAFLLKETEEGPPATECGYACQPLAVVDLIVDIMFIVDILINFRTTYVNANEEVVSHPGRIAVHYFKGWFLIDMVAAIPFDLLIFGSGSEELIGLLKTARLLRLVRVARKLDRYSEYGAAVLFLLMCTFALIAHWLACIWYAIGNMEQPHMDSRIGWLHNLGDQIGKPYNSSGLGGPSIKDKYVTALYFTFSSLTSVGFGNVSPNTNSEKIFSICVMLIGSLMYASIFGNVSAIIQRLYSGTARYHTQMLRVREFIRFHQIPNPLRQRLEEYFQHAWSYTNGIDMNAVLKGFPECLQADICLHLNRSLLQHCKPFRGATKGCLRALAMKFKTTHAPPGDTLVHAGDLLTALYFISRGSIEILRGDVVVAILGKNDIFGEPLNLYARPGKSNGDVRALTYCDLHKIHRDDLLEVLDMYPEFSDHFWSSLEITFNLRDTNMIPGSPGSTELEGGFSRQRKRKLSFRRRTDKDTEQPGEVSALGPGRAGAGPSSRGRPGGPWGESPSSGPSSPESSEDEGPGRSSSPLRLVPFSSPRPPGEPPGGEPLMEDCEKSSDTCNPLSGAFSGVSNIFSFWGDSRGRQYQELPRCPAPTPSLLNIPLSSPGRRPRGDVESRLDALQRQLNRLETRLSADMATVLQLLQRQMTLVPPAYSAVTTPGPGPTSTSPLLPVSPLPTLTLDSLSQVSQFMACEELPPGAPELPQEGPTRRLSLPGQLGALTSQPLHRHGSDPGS
Assay: Inhibition of human ERG at 10 uM incubated for 2 hrs by fluorescence polarization assay relative to control
Conditions: not given

| Structure (SMILES) | inhibition at 2 h, 10 µM [%] |
| --- | --- |
| COc1cccc2oc(-c3cc(C)cs3)c(O)c(=O)c12 | -7.47 |
| COc1ccc2c(=O)c(O)c(-c3sccc3C)oc2c1 | -3.84 |
| COc1ccc2oc(-c3c[nH]c4ccccc34)c(O)c(=O)c2c1 | 41.2 |
| CCOc1ccc2c(=O)c(O)c(-c3csc4ccccc34)oc2c1 | -3.21 |
| Cc1csc(-c2oc3ccc(O)cc3c(=O)c2O)c1 | 16.1 |
| O=c1c(O)c(-c2c[nH]c3ccccc23)oc2ccc(O)cc12 | 53.2 |
| COc1ccc2oc(-c3csc4ccccc34)c(OC(=O)N(C)C)c(=O)c2c1 | -17.9 |

Tested on: not listed separately
Assay: Cytotoxicity against human A549 cells assessed as cell growth at […] incubated for 48 hrs by Celltiter-Glo luminescence assay relative to control
Assay type: cell-based
Design: dose or concentration left out as unconfirmed
Conditions: read-out: Activity

| Structure (SMILES) | viability at 48 h [%] |
| --- | --- |
| COc1cccc2oc(-c3cc(C)cs3)c(O)c(=O)c12 | 25.3 |
| COc1ccc2c(=O)c(O)c(-c3sccc3C)oc2c1 | 65 |
| COc1ccc2oc(-c3c[nH]c4ccccc34)c(O)c(=O)c2c1 | 20.9 |
| CCOc1ccc2c(=O)c(O)c(-c3csc4ccccc34)oc2c1 | 11.9 |
| Cc1csc(-c2oc3ccc(O)cc3c(=O)c2O)c1 | 93.8 |
| O=c1c(O)c(-c2c[nH]c3ccccc23)oc2ccc(O)cc12 | 5.87 |
| COc1ccc2oc(-c3csc4ccccc34)c(OC(=O)N(C)C)c(=O)c2c1 | 104 |

Tested on: 786-0
Assay: Mitochondrial toxicity in human 786-0 cells at 10 uM incubated with compound for 6 hrs followed by incubation with MitoTracker Red chloromethyl-X-rosamine dye for 45 mins by imaging analysis
Assay type: cell-based
Conditions: 786-0, 6 h

| Structure (SMILES) | Activity [%] |
| --- | --- |
| COc1cccc2oc(-c3cc(C)cs3)c(O)c(=O)c12 | -7.63 |
| COc1ccc2c(=O)c(O)c(-c3sccc3C)oc2c1 | -8.17 |
| COc1ccc2oc(-c3c[nH]c4ccccc34)c(O)c(=O)c2c1 | -12.53 |
| CCOc1ccc2c(=O)c(O)c(-c3csc4ccccc34)oc2c1 | 29.51 |
| Cc1csc(-c2oc3ccc(O)cc3c(=O)c2O)c1 | 4.24 |
| O=c1c(O)c(-c2c[nH]c3ccccc23)oc2ccc(O)cc12 | 17.38 |
| COc1ccc2oc(-c3csc4ccccc34)c(OC(=O)N(C)C)c(=O)c2c1 | -42.09 |

Target: CYP3A4 (Homo sapiens, UniProt P08684)
Sequence (P08684 whole entry): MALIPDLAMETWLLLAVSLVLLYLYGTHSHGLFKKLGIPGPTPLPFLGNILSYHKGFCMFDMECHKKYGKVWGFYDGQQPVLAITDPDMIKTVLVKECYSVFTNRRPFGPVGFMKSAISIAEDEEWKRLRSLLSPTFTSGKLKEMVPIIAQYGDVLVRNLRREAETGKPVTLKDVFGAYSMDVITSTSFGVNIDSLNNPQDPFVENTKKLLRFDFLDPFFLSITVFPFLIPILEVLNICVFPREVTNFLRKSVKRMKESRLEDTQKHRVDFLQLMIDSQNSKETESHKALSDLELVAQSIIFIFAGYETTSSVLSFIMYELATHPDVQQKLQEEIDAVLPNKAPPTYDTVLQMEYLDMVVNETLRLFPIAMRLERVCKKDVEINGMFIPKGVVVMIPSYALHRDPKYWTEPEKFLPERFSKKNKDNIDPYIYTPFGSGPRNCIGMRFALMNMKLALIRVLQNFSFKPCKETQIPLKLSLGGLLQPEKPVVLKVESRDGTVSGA
Assay: Inhibition of human microsomal CYP3A4 expressed in baculovirus infected insect cells at 10 uM using luciferin-IPA as substrate preincubated with enzyme/substrate mixture for 30 mins followed by further incubation with NADPH for 30 mins by CYP450 luciferase Glo assay relative to control
Assay type: ADME
Conditions: probe luciferin-IPA

| Structure (SMILES) | inhibition at 0.5 h, 10 µM [%] |
| --- | --- |
| COc1cccc2oc(-c3cc(C)cs3)c(O)c(=O)c12 | 24.5 |
| COc1ccc2c(=O)c(O)c(-c3sccc3C)oc2c1 | 79.4 |
| COc1ccc2oc(-c3c[nH]c4ccccc34)c(O)c(=O)c2c1 | 11 |
| CCOc1ccc2c(=O)c(O)c(-c3csc4ccccc34)oc2c1 | 11.5 |
| Cc1csc(-c2oc3ccc(O)cc3c(=O)c2O)c1 | 17.6 |
| O=c1c(O)c(-c2c[nH]c3ccccc23)oc2ccc(O)cc12 | 18.7 |
| COc1ccc2oc(-c3csc4ccccc34)c(OC(=O)N(C)C)c(=O)c2c1 | 47.4 |

Target: T1, CYP1A2 (Homo sapiens, UniProt P05177)
T1 sequence (P05177 whole entry): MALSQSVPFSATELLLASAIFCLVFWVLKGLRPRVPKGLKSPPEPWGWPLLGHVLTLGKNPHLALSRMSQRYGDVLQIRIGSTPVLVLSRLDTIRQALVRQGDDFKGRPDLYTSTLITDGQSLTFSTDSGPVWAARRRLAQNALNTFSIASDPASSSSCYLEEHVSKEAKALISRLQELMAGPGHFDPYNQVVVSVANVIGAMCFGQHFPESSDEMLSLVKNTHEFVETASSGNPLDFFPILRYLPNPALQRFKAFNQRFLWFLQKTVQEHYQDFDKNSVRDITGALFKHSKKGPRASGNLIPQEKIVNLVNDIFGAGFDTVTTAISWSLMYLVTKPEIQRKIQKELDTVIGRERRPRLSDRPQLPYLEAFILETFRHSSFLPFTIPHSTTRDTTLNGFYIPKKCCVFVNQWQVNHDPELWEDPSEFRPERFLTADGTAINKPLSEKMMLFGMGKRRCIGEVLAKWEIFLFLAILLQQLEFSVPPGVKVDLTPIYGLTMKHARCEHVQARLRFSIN
Assay: Inhibition of human microsomal CYP1A2 expressed in baculovirus infected insect cells at 10 uM using luciferin-1A2 as substrate preincubated with enzyme/substrate mixture for 30 mins followed by further incubation with NADPH for 30 mins by CYP450 luciferase Glo assay relative to control
Assay type: ADME
Conditions: probe luciferin-1A2

| Structure (SMILES) | inhibition at 0.5 h, 10 µM [%] |
| --- | --- |
| COc1cccc2oc(-c3cc(C)cs3)c(O)c(=O)c12 | 106 |
| COc1ccc2c(=O)c(O)c(-c3sccc3C)oc2c1 | 108 |
| COc1ccc2oc(-c3c[nH]c4ccccc34)c(O)c(=O)c2c1 | 101 |
| CCOc1ccc2c(=O)c(O)c(-c3csc4ccccc34)oc2c1 | 81.8 |
| Cc1csc(-c2oc3ccc(O)cc3c(=O)c2O)c1 | 96.1 |
| O=c1c(O)c(-c2c[nH]c3ccccc23)oc2ccc(O)cc12 | 101 |
| COc1ccc2oc(-c3csc4ccccc34)c(OC(=O)N(C)C)c(=O)c2c1 | 61.1 |

Tested on: not listed separately
Assay: Selectivity index, ratio of CC50 for human THP1 cells to EC50 for Trypanosoma brucei bloodstream form
Assay type: toxicity
Conditions: read-out: Ratio CC50/EC50

| Structure (SMILES) | selectivity ratio |
| --- | --- |
| COc1cccc2oc(-c3cc(C)cs3)c(O)c(=O)c12 | 4 |
| COc1ccc2c(=O)c(O)c(-c3sccc3C)oc2c1 | 3 |
| COc1ccc2oc(-c3c[nH]c4ccccc34)c(O)c(=O)c2c1 | 8 |
| Cc1csc(-c2oc3ccc(O)cc3c(=O)c2O)c1 | 2 |
| O=c1c(O)c(-c2c[nH]c3ccccc23)oc2ccc(O)cc12 | 16 |

Target: CYP2C9 (Homo sapiens, UniProt P11712)
Sequence (P11712 whole entry): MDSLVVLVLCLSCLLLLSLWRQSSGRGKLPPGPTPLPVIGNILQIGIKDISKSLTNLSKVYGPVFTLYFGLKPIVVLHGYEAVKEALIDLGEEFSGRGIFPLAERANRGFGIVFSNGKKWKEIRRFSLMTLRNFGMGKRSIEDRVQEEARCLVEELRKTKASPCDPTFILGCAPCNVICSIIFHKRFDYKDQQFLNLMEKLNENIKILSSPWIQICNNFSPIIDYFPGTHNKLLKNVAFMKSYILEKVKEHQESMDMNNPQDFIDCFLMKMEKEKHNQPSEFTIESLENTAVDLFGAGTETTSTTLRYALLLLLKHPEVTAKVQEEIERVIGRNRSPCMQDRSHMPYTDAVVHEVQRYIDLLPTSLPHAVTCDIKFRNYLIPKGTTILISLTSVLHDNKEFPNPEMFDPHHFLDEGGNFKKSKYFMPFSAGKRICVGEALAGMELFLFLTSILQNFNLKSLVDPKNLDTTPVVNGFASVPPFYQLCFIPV
Assay: Inhibition of human microsomal CYP2C9 expressed in baculovirus infected insect cells at 10 uM using luciferin-H as substrate preincubated with enzyme/substrate mixture for 30 mins followed by further incubation with NADPH for 30 mins by CYP450 luciferase Glo assay relative to control
Assay type: ADME
Conditions: probe luciferin-H

| Structure (SMILES) | inhibition at 0.5 h, 10 µM [%] |
| --- | --- |
| COc1cccc2oc(-c3cc(C)cs3)c(O)c(=O)c12 | 53.5 |
| COc1ccc2c(=O)c(O)c(-c3sccc3C)oc2c1 | 45.5 |
| COc1ccc2oc(-c3c[nH]c4ccccc34)c(O)c(=O)c2c1 | 28.8 |
| CCOc1ccc2c(=O)c(O)c(-c3csc4ccccc34)oc2c1 | 23 |
| Cc1csc(-c2oc3ccc(O)cc3c(=O)c2O)c1 | 40.1 |
| O=c1c(O)c(-c2c[nH]c3ccccc23)oc2ccc(O)cc12 | 40.2 |
| COc1ccc2oc(-c3csc4ccccc34)c(OC(=O)N(C)C)c(=O)c2c1 | -6.48 |

Target: CYP2D6 (Homo sapiens, UniProt P10635)
Sequence (P10635 whole entry): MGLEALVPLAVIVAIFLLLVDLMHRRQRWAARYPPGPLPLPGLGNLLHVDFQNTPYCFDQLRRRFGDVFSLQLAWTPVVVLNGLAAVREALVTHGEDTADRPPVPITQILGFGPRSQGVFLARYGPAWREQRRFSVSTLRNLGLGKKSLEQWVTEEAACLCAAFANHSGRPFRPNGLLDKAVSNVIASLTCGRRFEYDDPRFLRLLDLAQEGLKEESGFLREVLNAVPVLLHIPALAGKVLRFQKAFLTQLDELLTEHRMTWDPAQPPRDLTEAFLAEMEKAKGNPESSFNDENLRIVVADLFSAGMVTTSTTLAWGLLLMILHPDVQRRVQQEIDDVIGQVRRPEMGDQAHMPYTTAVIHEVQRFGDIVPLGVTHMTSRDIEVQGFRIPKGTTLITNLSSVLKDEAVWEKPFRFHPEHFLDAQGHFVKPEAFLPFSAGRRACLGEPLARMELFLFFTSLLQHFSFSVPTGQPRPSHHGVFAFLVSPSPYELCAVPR
Assay: Inhibition of human microsomal CYP2D6 expressed in baculovirus infected insect cells at 10 uM using luciferin-ME as substrate preincubated with enzyme/substrate mixture for 30 mins followed by further incubation with NADPH for 30 mins by CYP450 luciferase Glo assay relative to control
Assay type: ADME
Conditions: probe luciferin-ME

| Structure (SMILES) | inhibition at 0.5 h, 10 µM [%] |
| --- | --- |
| COc1cccc2oc(-c3cc(C)cs3)c(O)c(=O)c12 | 21.2 |
| COc1ccc2c(=O)c(O)c(-c3sccc3C)oc2c1 | 9.1 |
| COc1ccc2oc(-c3c[nH]c4ccccc34)c(O)c(=O)c2c1 | -8 |
| CCOc1ccc2c(=O)c(O)c(-c3csc4ccccc34)oc2c1 | 24.7 |
| Cc1csc(-c2oc3ccc(O)cc3c(=O)c2O)c1 | 40.1 |
| O=c1c(O)c(-c2c[nH]c3ccccc23)oc2ccc(O)cc12 | -0.42 |
| COc1ccc2oc(-c3csc4ccccc34)c(OC(=O)N(C)C)c(=O)c2c1 | 20.3 |

Tested on: Leishmania infantum
Assay: Antileishmanial activity against luciferase expressing intracellular amastigote stage of Leishmania infantum infected in human THP1 cells assessed as parasite growth inhibition measured after 48 to 72 hrs by steady-glo luciferase assay
Assay type: functional, organism-based
Conditions: not given

| Structure (SMILES) | EC50 |
| --- | --- |
| CCOc1ccc2c(=O)c(O)c(-c3csc4ccccc34)oc2c1 | Not Active |
| COc1ccc2oc(-c3csc4ccccc34)c(OC(=O)N(C)C)c(=O)c2c1 | Not Active |

Tested on: not listed separately
Assay: Cytotoxicity against human THP1 cells by MTT assay
Assay type: cell-based, THP-1
Conditions: not given

| Structure (SMILES) | CC50 [µM] |
| --- | --- |
| COc1cccc2oc(-c3cc(C)cs3)c(O)c(=O)c12 | 12.5 to 25 |
| COc1ccc2c(=O)c(O)c(-c3sccc3C)oc2c1 | 12.5 to 25 |
| COc1ccc2oc(-c3c[nH]c4ccccc34)c(O)c(=O)c2c1 | 12.5 to 25 |
| CCOc1ccc2c(=O)c(O)c(-c3csc4ccccc34)oc2c1 | 12.5 to 25 |
| Cc1csc(-c2oc3ccc(O)cc3c(=O)c2O)c1 | 10 to 25 |
| O=c1c(O)c(-c2c[nH]c3ccccc23)oc2ccc(O)cc12 | 50 to 100 |
| COc1ccc2oc(-c3csc4ccccc34)c(OC(=O)N(C)C)c(=O)c2c1 | 12.5 to 25 |
